Measurements reported in patent publication US20260373134A1, “INHIBITORS OF DYRK1A” (Beth Israel Deaconess Medical Center, Inc., priority 2023, published 2026).
Where two headings read alike, the source gives them in different places.

How the values were obtained:
DYRK1A [1] = target: T1, DYRK1A (Homo sapiens, UniProt Q13627); test: Kinase assay, % inhibition at fixed concentrations (Table 1b); assay type: binding; settings: for inhibition at 10 µM: read-out: % inh at 10 μM
T1 construct: T7 phage (kinase-tagged T7 phage), or a DNA tag for qPCR if produced in HEK-293; made in house; host or cells: E. coli (BL21-derived, T7 phage) for most kinases, HEK-293 for the remaining ones
Protocol: (§1) Methods: a competitive binding assay was used as the primary screen to measure the binding affinity (KD) to DYRK1A. Selectivity against DYRK1B/2 as well as the related CLK1-4 was determined by comparison of the KD in each of the enzymes. Cellular activity of representative compounds was obtained by measuring the p-Tau levels in HEK293 cells expressing human full-length DYRK1A and Tau.
(§2) Kinase assays. For most assays, kinase-tagged T7 phage strains were prepared in an E. coli host derived from the BL21 strain. E. coli were grown to log-phase and infected with T7 phage and incubated with shaking at 32 °C until lysis. The lysates were centrifuged and filtered to remove cell debris. The remaining kinases were produced in HEK-293 cells and subsequently tagged with DNA for qPCR detection. Streptavidin-coated magnetic beads were treated with biotinylated small molecule ligands for 30 minutes at room temperature to generate affinity resins for kinase assays. The liganded beads were blocked with excess biotin and washed with blocking buffer (SeaBlock (Pierce), 1% BSA, 0.05% Tween 20, 1 mM DTT) to remove unbound ligand and to reduce non-specific binding. […] Test compounds were prepared as 111× stocks in 100% DMSO. Kas were determined using an 11-point 3-fold compound dilution series with three DMSO control points. All compounds for Kd measurements are distributed by acoustic transfer (non-contact dispensing) in 100% DMSO. The compounds were then diluted directly into the assays such that the final concentration of DMSO was 0.9%. All reactions performed in polypropylene 384-well plate. Each was a final volume of 0.02 mL. The assay plates were incubated at room temperature with shaking for 1 hour and the affinity beads were washed with wash buffer (1×PBS, 0.05% Tween 20). The beads were then re-suspended in elution buffer (1×PBS, 0.05% Tween 20, 0.5 μM non-biotinylated affinity ligand) and incubated at room temperature with shaking for 30 minutes. The kinase concentration in the eluates was measured by qPCR.

[2] = target: T2, Tau phosphorylation (human DYRK1A and Tau) in HEK293 cells (Homo sapiens, UniProt Q13627); test: Kinase cellular assay: p-Tau levels in HEK293 cells expressing full-length human DYRK1A and Tau; assay type: cell-based; settings: Table 1a
T2 construct: p-Tau ELISA
Protocol: as §1
Kinase Cellular Assay: HEK293 human embryonic kidney cells were transiently co-transfected with vectors encoding full-length human DYRK1A and Tau. Cells were dispensed into 96-well plates at a number previously determined by cell titration and signal optimization for the DYRK1A assay. Compounds were diluted to 200× final assay concentration in DMSO. Eight 3-fold or 4-fold serial dilutions were prepared for each compound in 100% DMSO. Compounds were then diluted in tissue culture medium to 10× final assay concentration and 5% DMSO. Compounds were added to the cells in 96-well plates (10-fold dilution in medium) for a final concentration of 1× compound and 0.5% DMSO. For positive (high signal) controls, cells were treated with 0.5% DMSO alone. For negative (low signal) controls, cells were treated with 20 μM harmine including 0.5% DMSO final concentration. Cells were incubated with compound at 37 °C for 2 hours. Cells were lysed, and lysates were transferred to an ELISA plate that had been previously coated with antibody to capture the substrate (human Tau). Plates were washed then incubated with an antibody to detect phosphorylation of Tau. Plates were washed then incubated with HRP-linked secondary antibody. Plates were washed, then HRP substrate was added. Absorbance was read at 450 nm. Percent inhibition values were calculated from absorbance readings based on positive and negative control values, and according to the following formula: (% INH=((positive control−sample)/(positive control−negative control))[…]. Z′ values were calculated based on the following formula: 1−[(3×standard deviation of positives+3×standard deviation of negatives)/(average positive−average negative)]. Percent inhibition values were plotted vs. the log of compound concentrations utilizing GraphPad Prism software. IC50s were determined after utilizing sigmoidal dose response curve fitting to generate the curves.

DYRK1A [3] = target: T1, DYRK1A; test: Competitive binding assay, KD to DYRK1A
Protocol: as §1, §2

INFg = test: T-cell inflammation inhibition assay (anti-CD3 stimulated PBMCs), IFN gamma; assay type: cell-based; settings: Homo sapiens, PBMC, read-out: % inh at 5 μM INFg
Protocol: (§3) T-cell Inflammation Inhibition Assay Protocol: Day 1, High binding plates were coated with anti-CD3 (clone UCHT-1, 2 μg/mL) and isotype IgG1 using PBS 1× and incubated overnight at 4 °C. Day 2: Cryopreserved PBMCs were drip thawed and diluted to the appropriate density and seeded into U bottom 96-well polypropylene plates (1.2×10^5 cells per well) with 228 μL per well of culture medium (RPMI 1640, 10% heat-inactivated FBS, 1% penicillin/streptomycin, 2 mM L-glutamine). Cells were incubated at 37 °C, 5% CO2 for 1 hour prior to the addition of test compounds. Test compounds were solubilized in DMSO and further diluted to 20× with cell culture medium. Compounds were added to the PBMCs in volumes of 12 μL (1×) in triplicate and incubated for 1 hour at 37 °C, 5% CO2. For reference compound, 12 μL of dexamethasone (100 nM) was added to the control wells according to the plate map and incubated for 1 hour at 37 °C, 5% CO2. After 1 hour incubation, 200 μL of cells (1×10^5) treated with test compounds or controls were transferred to the anti-CD3 coated plates and incubated for 24 hours at 37 °C, 5% CO2, For positive and negative controls, transferred 200 μL (1×10^5) of cells to the coated plate with anti-CD3 or isotype IgG1. Plates were centrifuged at 200×g for 10 minutes. Cell culture supernatants were collected and stored at −80 °C until needed for analysis. Cytokine levels in each sample were determined using Luminex methodology, per the manufacturer's protocol, Luminex assessment of cytokine levels in cell culture supernatants in tissue culture medium, was performed per manufacturer's protocol using the Human Cytokine/Chemokine Magnetic bead panel from Millipore Sigma (catalogue No. HCYTOMAG-60K) with standards range 3.2, 16, 80, 400, 2,000, 10,000 pg/mL. Cytokines Measured: The following cytokines were measured for a complete cytokine response profile. Human panel, T cell (neat): IL-2, IL-17, […].

IL-17 = test: T-cell inflammation inhibition assay (anti-CD3 stimulated PBMCs), IL-17; assay type: cell-based; settings: Homo sapiens, PBMC, read-out: % inh at 5 μM IL17
Protocol: as §3

IL-2 = test: T-cell inflammation inhibition assay (anti-CD3 stimulated PBMCs), IL-2; assay type: cell-based; settings: Homo sapiens, PBMC, read-out: % inh at 5 μM IL2
Protocol: as §3

Structure (SMILES)	inhibition at 10 µM (DYRK1A [1])	IC50 [2]	Kd (DYRK1A [3]; read-out: KD)	Kd (DYRK1A [3]; read-out: KD (bound))	inhibition at 5 µM (INFg)	inhibition at 5 µM (IL-17)	inhibition at 5 µM (IL-17; second value)	inhibition at 5 µM (IL-2)	inhibition at 5 µM (IL-2; second value)	also measured
CC1(COC(=O)Nc2nc3cc(-c4ccncc4)ccc3[nH]2)COC1 [Compound 1, (3-methyloxetan-3-yl)methyl (5-(pyridin-4-yl)-1H-benzo[d]imidazol-2-yl)carbamate]	100%	37 nM	0.17 nM	< 1 nM						inhibition at 1 µM (DYRK1A [1]): 100%; inhibition at 0.1 µM (DYRK1A [1]; read-out: % inh at 0.1 μM): 100%
COC(=O)Nc1nc2cc(-c3ccnc(C)c3)ccc2[nH]1 [Compound 2, Methyl (5-(2-methylpyridin-4-yl)-1H-benzo[d]imidazol-2-yl)carbamate]		280 nM	0.72 nM	< 1 nM	31.4%	22.8%	35.9%	46.5%	42.3%	inhibition at 5 µM (INFg; second value): 11.5%
Cc1cc(-c2ccc3[nH]c(NC(=O)OCC4COC4)nc3c2)ccn1 [Compound 5, Oxetan-3-ylmethyl (5-(2-methylpyridin-4-yl)-1H-benzo[d]imidazol-2-yl)carbamate]		55 nM	0.33 nM	< 1 nM	58.8%	47.8%	51.8%	78.2%	59.3%	inhibition at 5 µM (INFg; second value): 46%
Cc1cc(-c2ccc3[nH]c(NC(=O)NCC4(C)COC4)nc3c2)ccn1 [Compound 6, 1-((3-Methyloxetan-3-yl)methyl)-3-(5-(2-methylpyridin-4-yl)-1H-benzo[d]imidazol-2-yl)urea]		827 nM			30%	9.3%	7.3%	38.9%	35.8%	
O=C(Nc1nc2cc(-c3cccnc3)ccc2[nH]1)OCC1COC1 [Compound 7, Oxetan-3-ylmethyl (5-(pyridin-3-yl)-1H-benzo[d]imidazol-2-yl)carbamate]					24.4%			36.9%	43.4%	
O=C(Nc1nc2cc(-c3ccncc3)ccc2[nH]1)OCC1COC1 [Compound 10, Oxetan-3-ylmethyl (5-(pyridin-4-yl)-1H-benzo[d]imidazol-2-yl)carbamate]		26 nM			57.5%	35%	30.4%	76.1%	59.8%	inhibition at 5 µM (INFg; second value): 39.9%
CC1(CNC(=O)Nc2nc3cc(-c4ccncc4)ccc3[nH]2)COC1 [Compound 11, 1-((3-Methyloxetan-3-yl)methyl)-3-(5-(pyridin-4-yl)-1H-benzo[d]imidazol-2-yl)urea]			0.33 nM	< 1 nM						
Cc1cc(-c2ccc3[nH]c(NC(=O)OCC4(C)COC4)nc3c2)ccn1 [Compound 12, (3-methyloxetan-3-yl)methyl (5-(2-methylpyridin-4-yl)-1H-benzo[d]imidazol-2-yl)carbamate]			0.14 nM	< 1 nM						
COC(=O)Nc1nc2cc(OC)ccc2[nH]1 [Compound 17, Methyl (5-methoxy-1H-benzo[d]imidazol-2-yl)carbamate]	69%									
COc1ccc2[nH]c(N)nc2c1 [Compound 18, 5-Methoxy-1H-benzo[d]imidazol-2-amine]	11%									
COc1ccc2[nH]c(NC(=O)OCCN(C)C)nc2c1 [Compound 19, 2-(Dimethylamino)ethyl (5-methoxy-1H-benzo[d]imidazol-2-yl)carbamate]	51%									
COc1ccc2[nH]c(NC(=O)OCC3(C)COC3)nc2c1 [Compound 20, (3-Methyloxetan-3-yl)methyl (5-methoxy-1H-benzo[d]imidazol-2-yl)carbamate]	96.4%									inhibition at 1 µM (DYRK1A [1]): 63%
COc1ccc2[nH]c(NC(=O)OCc3cccc(F)c3)nc2c1 [Compound 21, 3-Fluorobenzyl (5-methoxy-1H-benzo[d]imidazol-2-yl)carbamate]	69%									
